Laboratory results as given in patent publication US20210115047A1, “CDPK1 INHIBITORS, COMPOSITIONS AND METHODS RELATED THERETO” (Vyera Pharmaceutical, LLC, priority 2017, published 2021).
pIC50: −log10 of the molar value.

Target: T1, T. gondii CDPK1 (tgCDPK1) (Toxoplasma gondii, UniProt Q9BJF5)
T1 sequence (Q9BJF5 1-507): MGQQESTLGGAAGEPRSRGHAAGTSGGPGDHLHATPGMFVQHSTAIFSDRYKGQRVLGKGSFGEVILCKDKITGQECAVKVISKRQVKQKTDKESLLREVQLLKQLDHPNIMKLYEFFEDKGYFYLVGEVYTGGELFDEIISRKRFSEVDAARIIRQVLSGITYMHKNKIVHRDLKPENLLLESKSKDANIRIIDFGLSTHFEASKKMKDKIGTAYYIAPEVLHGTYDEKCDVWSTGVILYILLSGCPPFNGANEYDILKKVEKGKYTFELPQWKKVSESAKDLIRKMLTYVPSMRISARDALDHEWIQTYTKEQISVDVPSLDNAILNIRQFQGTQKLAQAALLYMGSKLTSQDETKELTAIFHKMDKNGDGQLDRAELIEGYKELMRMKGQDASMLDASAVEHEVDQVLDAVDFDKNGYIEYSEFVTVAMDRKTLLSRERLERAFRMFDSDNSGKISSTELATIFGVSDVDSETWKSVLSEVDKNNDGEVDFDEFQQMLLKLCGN
Assay: Inhibition of T. gondii CDPK1 (tgCDPK1), IC50 determination
Assay type: biochemical
Conditions: at least three independent replicates per compound
Description: Certain of the compounds prepared as described above were assayed to determine their IC50 for inhibition of T. gondii CDPK1 (tgCDPK1). At least three independent replicates of the assay were conducted for each compound tested.

| Structure (SMILES) | pIC50 |
| --- | --- |
| Nc1ncnc2c1c(Cc1cc(F)cc(Cl)c1)nn2C1CC1 [Compound 4, 3-(3-chloro-5-fluorobenzyl)-1-cyclopropyl-1H-pyrazolo[3,4-d]pyrimidin-4-amine] | 7.04 |
| Nc1ncnc2c1c(Cc1cccc(F)c1)nn2C1CC1 [Compound 5, 1-cyclopropyl-3-(3-fluorobenzyl)-1H-pyrazolo[3,4-d]pyrimidin-4-amine] | 7.60 |
| Nc1ncnc2c1c(Cc1cccc(Cl)c1)nn2C1CCC1 [Compound 6, 3-(3-chlorobenzyl)-1-cyclobutyl-1H-pyrazolo[3,4-d]pyrimidin-4-amine] | 8.06 |
| Nc1ncnc2c1c(Cc1cccc(-c3ccccc3)c1)nn2C1CC1 [Compound 9, 3-([1,1′-biphenyl]-3-ylmethyl)-1-cyclopropyl-1H-pyrazolo[3,4-d]pyrimidin-4-amine] | 7.58 |
| Nc1ncnc2c1c(Cc1cccc(-c3cncnc3)c1)nn2C1CC1 [Compound 10, 1-cyclopropyl-3-(3-(pyrimidin-5-yl)benzyl)-1H-pyrazolo[3,4-d]pyrimidin-4-amine] | 6.43 |
| Nc1ncnc2c1c(Cc1cccc(-c3ccncc3)c1)nn2C1CC1 [Compound 11, 1-cyclopropyl-3-(3-(pyridin-4-yl)benzyl)-1H-pyrazolo[3,4-d]pyrimidin-4-amine] | 5.93 |
| Nc1ncnc2c1c(C(O)c1ccccc1)nn2C1CC1 (stereo not drawn) [Compound 16, (4-amino-1-cyclopropyl-1H-pyrazolo[3,4-d]pyrimidin-3-yl)(phenyl)methanol] | 5.76 |
| Nc1ncnc2c1c(Cc1ccccc1)nn2C1CC1 [Compound 17, 3-benzyl-1-cyclopropyl-1H-pyrazolo[3,4-d]pyrimidin-4-amine] | 7.60 |
| Nc1ncnc2c1c(C(O)c1cccnc1)nn2C1CC1 (stereo not drawn) [Compound 18, (4-amino-1-cyclopropyl-1H-pyrazolo[3,4-d]pyrimidin-3-yl)(pyridin-3-yl)methanol] | 5.31 |
